# Measured values from ChEMBL document CHEMBL3286241, “Dammarane-type triterpenoids from Gentianella azurea” (J Nat Prod, 2014).
# Test system: RAW264.7
# Experiment: Antiinflammatory activity in mouse RAW264.7 cells assessed as inhibition of LPS-induced NO production after 24 hrs by Griess assay
# Type: functional, cell-based
# Conditions: RAW264.7, 24 h
row,IC50 [µM],Structure (SMILES)
1,1.25,COc1ccc2c(c1)c(CC(=O)O)c(C)n2C(=O)c1ccc(Cl)cc1 [INDOMETHACIN]
2,6.6,CC1(C)O[C@](C(=O)O)([C@H]2CC[C@]3(C)[C@@H]2CC[C@@H]2[C@@]4(C)CC[C@H](O[C@@H]5O[C@H](CO)[C@@H](O)[C@H](O)[C@H]5O)[C@](C)(CO)[C@@H]4CC[C@]23C)C[C@H](O)[C@@H]1O [GENTIRIGEOSIDE A]
